# Results reported in US20240415851A1, “REMODILINS TO PREVENT OR TREAT CANCER METASTASIS, GLAUCOMA, AND HYPOXIA” (The University of Chicago, priority 2019, published 2024).
# Assays:
# [1] = tested on: human primary trabecular meshwork cells; assay: α-SMA expression in TGF-β2 treated TM cells; type: cell-based; details: TGFβ2 5 ng/mL 48 hr; remodilin 3 μM, PGE2 1 μM; vs DMSO
# Description: FIG. 9 Anti-fibrogenic effects of remodilin 50 in human primary trabecular meshwork cells.
# (§1) TM cells were cultured in 6-well plates and serum-deprived for one day before drug treatment. Cells were treated with prostaglandin E2 (PGE2, 1 μM), remodilin [3 μM] or vehicle control (dimethyl sulfoxide, DMSO) together with human recombinant TGF-β2 [5 ng/ml] for 48 hours. PGE2 was chosen as a positive control due to its known anti-fibrogenic effects. […] The effect of remodilin treatment alone on cellular contractile force in TM cells was examined. The effects of remodilin treatment using “force response ratio” which is a normalized average contractile force compared to baseline, was examined. Average contractile force was measured using Fourier-Transform Traction Microscopy. After 1 hr treatment, compared to DMSO, remodilins reduced average contractile force of TM cells in a dose dependent manner. […] Therefore, remodilins may change structural compositions and mechanical properties of TM and therefore, may help increase outflow facility in glaucomatous eyes with elevated TGF-β2 level.
# [2] = tested on: SRF-dependent transcription; assay: TGFβ-stimulated SRF-dependent transcription (luciferase reporter); type: cell-based; details: human lung fibroblasts; 10 μM
# Description: (§2) FIG. 2 Signaling pathway targeted by remodilins. Schematic diagram (center) of signaling from TGFβ to (SRF); red proteins are some, but not all, potential targets. TGFβ stimulates Smad-dependent transcription in human lung fibroblasts that is unchanged by 10 μM remodilin 4 (left), but TGFβ-stimulated SRF-dependent transcription is inhibited by the remodilin (right). SBE—Smad binding element; Luc—luciferase; TK-RL—constitutively active thymidine kinase promoter-driven renilla luciferase (used to control for transfection efficiency).
# (§3) In cultured human lung fibroblasts, remodilins act downstream of Smad signaling, which remains intact, though TGFβ-induced SRF activation is blocked (FIG. 2); SRF is necessary for expression of smooth muscle α-actin and other contractile proteins. Remodilins also suppress TGFβ-induced HIF1α expression in human lung fibroblasts and HIF1α-stimulated pathways in human airway myocytes.
# [3] = tested on: human lung-derived fibroblasts; assay: TGFβ-induced myofibroblast transformation (ACTA2, FN1 protein expression); type: cell-based; details: 1 ng/mL TGFβ1; 0, 1, 3, or 10 μM remodilin for 2 d; dose-dependent
# Description: FIG. 1 Remodilins inhibit myofibroblast transformation (MFT). Serum deprived human lung-derived fibroblasts were treated with 1 ng/mL TGFβ1 (or not, left lane) and 0, 1, 3, or 10 μM remodilin for 2 d. Four remodilins each inhibited smooth muscle α-actin (ACTA2) or fibronectin-1 (FN1) protein expression (markers of MFT).
# [4] = tested on: Smad-dependent transcription; assay: TGFβ-stimulated Smad-dependent transcription (SBE-Luc reporter); type: cell-based; details: human lung fibroblasts; 10 μM
# Description: as §2, §3
# [5] = Tissue and plasma concentrations after single oral doses; type: in vivo; details: mice; single oral doses of 10 or 50 mg/kg (FIG. 6)
# Description: FIG. 6 Tissue and plasma remodilin concentrations after single oral doses (filled circles 50 mg/kg; open circles-10 mg/kg). […] The greater oral bioavailability, longer half-life, and inter-tissue variation of remodilin 83 concentration are readily evident. Mean+SEM shown; n=3/condition.
# (§4) The in vivo bioavailability, plasma half-life, Cmax, and area under the curve (AUC) were determined after administration of single 10 mg/kg doses of remodilins 39 and 83 to mice (Table 1). Selected tissue concentrations of remodilins 39 and 83 after single oral doses of 10 or 50 mg/kg (FIG. 6). The PK properties of these remodilins differ substantially.
# PK was re-evaluated after 14 days of intraperitoneal (IP) or oral BID dosing. […] Plasma levels after single or 15 consecutive once-daily IP 10 mg/kg doses of remodilin 39 were examined (FIG. 8). The plasma concentration of 10 μM remodilin 39 corresponds to 5314 ng/mL.
# MDA-MB-231 cells [6] = assay: Scratch wound healing migration assay; type: cell-based, human; details: dose-dependent; 1, 3, 10 uM; n=8 wells/condition
# Description: Mean+SD shown; n=8 wells/condition. P<0.0001 for 1, 3, & 10 uM remodilin 39 vs DMSO (control) by 2-way ANOVA/Dunnett's.
# (§5) Remodilins 39 and 83 each slowed the invasion of triple negative MDA-MB-231 human breast cancer cells from spheroids into a surrounding collagen gel (FIG. 3), and also slowed the serum-directed invasion MDA-MB-231-derived BM1 cells through Matrigel-coated transwells (FIG. 4). Remodilins 39 and 83 also slowed the migration of MDA-MB-231 cells in a scratch wound healing assay (FIG. 5).
# MDA-MB-231 cells [7] = assay: Alamar blue assay (growth inhibition, cytotoxicity); type: cell-based, human; details: concentrations to at least 10 uM
# [8] = Lipophilicity and dissolution in vehicles; type: physicochemical
# Description: In the experiments corresponding to FIG. 7, remodilin 83 was dissolved in 20% Solutol in PBS.
# MDA-MB-231 cells [9] = assay: Spheroid invasion into collagen gels; type: cell-based, human; details: 10 µM remodilin; 48 hrs; collagen 2 mg/mL; DMEM 0.5% FBS; vs 0.1% DMSO
# Description: FIG. 3 MDA-MB-231 cells were grown into spheroids, then allowed to migrate into collagen gels in DMEM containing 0.5% FBS and remodilin (10 µM remodilin 39 [top row] or remodilin 83 [bottom row]) or diluent (0.1% DMSO) for 48 hrs (representative 48 hr images shown).
# as §5
# HIF1α [10] = assay: Hypoxia-induced HIF1α accumulation in HEK293 cells; type: cell-based; details: 6 hrs steady hypoxia (1% oxygen); 3 μM or 10 µM
# From the text: FIG. 12A-12B Remodilins inhibit accumulation of hypoxia-inducible factor-1 alpha (HIF1α) protein. FIG. 12A Effect of remodilin 83 on TGFβ-induced phosphorylation of AKT and ERK1/2 and TGFβ-induced HIF1α accumulation in human fibroblasts. FIG. 12B Both remodilins 39 and 83 inhibited HIF1α accumulation in HEK293 cells exposed to 6 hrs of hypoxia (1% 02).
# The influence of remodilin 83 on HIF-1α accumulation in TGFβ-treated fibroblasts was examined. […] Similarly, both remodilins 39 and 83 inhibited HIF1α accumulation in HEK293 cells exposed to 6 hrs of hypoxia (1% O2; FIG. 12B). […] N—normoxia; H—hypoxia.
# HIF1α [11] = assay: Hypoxia-induced HIF1α accumulation in HEK293T cells (Western blot); type: cell-based; details: 6 hrs steady hypoxia; 3 or 10 μM
# From the text: FIG. 14A-14B Remodilins' effects on hypoxia-induced accumulation of HIF1α. […] FIG. 14B HIF1α was absent in cells ex-posed to 6 hrs normoxia (N).
# OSA is a chronic, morbid disease affecting about 10% of the adult population, in which frequent episodes of upper airway collapse obstruct inspiratory airflow and cause IH. These episodes of IH disrupt sleep but perhaps more importantly accelerate multiple cardiometabolic abnormalities, including systemic hypertension, cardiovascular disease, stroke, and abnormal glucose metabolism. Therefore, remodilins were examined for their ability on inhibit hypoxia-induced accumulation of HIF1α, a transcription factor that mediates many of the adverse responses to IH.
# [12] = In vivo PK and oral bioavailability, single dose; details: mouse, plasma, wild-type mice, 10 mg/kg single dose
# Description: as §4
# [13] = tested on: MDA-MB-231-derived BM1 cells; assay: 10% FBS-directed invasion through Matrigel-coated transwell membrane; type: cell-based, human; details: dose-dependent; n=3/condition
# From the text: FIG. 4 Remodilins 39 and 83 inhibited 10% FBS-directed invasion migration of MDA-MB-231-derived BM1 cells through a Matrigel-coated transwell mem-brane, in a dose-dependent fashion. Mean+SEM shown; n=3/condition. **P<0.01; ***P<0.001; ****P<0.0001.
# as §5
# [14] = tested on: human primary Schlemm's canal endothelial cells; assay: Fibronectin expression in TGF-β2 treated SC cells; type: cell-based; details: TGFβ2 2.5 ng/mL 48 hr; remodilin 3 or 10 μM; vs DMSO
# Description: (§6) FIGS. 11A-11C Anti-fibrogenic effects of remodilins 50, 73, and 82 in human primary Schlemm's canal endothelial cells.
# Remodilins' effect on SC cells, another key cell type in conventional outflow pathway, was examined. As described above, TGF-β2 also promotes pro-fibrogenic activation in SC cells and such activation accompanies elevation of cell contraction. Protein expression in TGF-β2 treated SC cells was examined first. SC cells from two different donors were cultured in 6-well plates and serum-deprived for 1 day before drug treatment. Cells were treated with Remodilin [3 or 10 μM] or DMSO together with human recombinant TGF-2 [2.5 ng/ml] for 48 hours.
# [15] = tested on: human primary Schlemm's canal endothelial cells; assay: Contractile force of SC cells (Fourier-Transform Traction Microscopy); type: cell-based; details: vs DMSO; for elevation of cellular contractile force in TGFβ2 treated SC cells: TGFβ2 2.5 ng/mL 48 hr, dose-dependent; for cellular contractile force of SC cells, remodilin alone: treatment alone, 1 hr, dose dependent
# Description: as §6
# Remodilins' effect on elevation of SC cell contraction by TGF-β2 treatment was then examined. Cellular contractile force was measured using Fourier-Transform Traction Microscopy. Compared to no treatment, TGF-β2 treatment elevated average cellular contractile force by almost seven-fold. […] Then, the effect of remodilin treatment alone on cellular contractile force in SC cells was investigated. After 1 hr treatment, compared to DMSO, remodilins reduced cellular contractile force in a dose dependent manner (FIG. 11C). […] Taken together, the anti-fibrogenic effects and relaxation effects of remodilins could be beneficial to reduce outflow resistance potentially through promoting pore formation in SC inner wall.
# TM cells = assay: Contractile force of TM cells (Fourier-Transform Traction Microscopy); type: cell-based, human; details: treatment alone, 1 hr, vs DMSO; dose dependent
# Description: as §1
SMILES,α-SMA expression induced by TGF-β2 in TM cells [1],TGFβ-stimulated transformation of human lung-derived fibroblasts to myofibroblast phenotype (ACTA2 or FN1 protein expression) [3],fibronectin expression in TGFβ2 treated SC cells [14],elevation of cellular contractile force in TGFβ2 treated SC cells [15],"cellular contractile force of SC cells, remodilin alone [15]",average contractile force of TM cells (force response ratio) (TM cells),further results
"CCCCC[C@H](O)/C=C/[C@H]1[C@H](O)CC(=O)[C@@H]1C/C=C\CCCC(=O)O [PGE2, prostaglandin E2, reference compound]",inhibited α-SMA expression,,,,,,
"CCN(CC)S(=O)(=O)c1ccc(NC(=O)c2ccc(OC)c(I)c2)cc1 [Remodilin 4, N-(4-(N,N-diethylsulfamoyl)phenyl)-3-iodo-4-methoxybenzamide]",,blunt TGFβ-stimulated transformation,,,,,TGFβ-stimulated SRF-dependent transcription [2]: inhibited; TGFβ-stimulated Smad-dependent transcription [4]: unchanged
"COc1ccc(C(=O)Nc2ccc(S(=O)(=O)N3CCCCC3C)cc2)cc1I (stereo not drawn) [Remodilin 39, 3-Iodo-4-methoxy-N-(4-((2-methylpiperidin-1-yl)sulfonyl)phenyl)benzamide]",,blunt TGFβ-stimulated transformation,,,,,tissue distribution [5]: distributed much more uniformly across tissues; migration of confluent MDA-MB-231 cells into circular scratch wound (MDA-MB-231 cells [6]): inhibited migration; growth inhibition or cytotoxicity by Alamar blue assay (MDA-MB-231 cells [7]): Neither remodilin is growth-inhibitory or cytotoxic; lipophilicity / lipid solubility [8]: highly lipid soluble; invasion of MDA-MB-231 cells from spheroids into collagen gels (MDA-MB-231 cells [9]): inhibited invasion; HIF1α accumulation in HEK293 cells exposed to hypoxia (HIF1α [10]): blunted HIF1α accumulation substantially; HIF1α accumulation in HEK293T cells exposed to hypoxia (HIF1α [11]): inhibit the accumulation of HIF1α; bioavailability ([12]; po): 4%; AUC [12]: 224 ng·h/mL; Cmax [12]: 240 nM; half-life [12]: 1.3 h; 10% FBS-directed invasion migration of BM1 cells through Matrigel-coated transwell membrane [13]: inhibited
"O=C(Nc1ccc(S(=O)(=O)N2CCCC2)cc1)c1ccc(Br)c(I)c1 [Remodilin 50, 4-Bromo-3-iodo-N-(4-(pyrrolidin-1-ylsulfonyl)phenyl)benzamide]",inhibited alpha smooth muscle actin expression,blunt TGFβ-stimulated transformation,inhibited fibronectin expression,inhibited the elevation of cellular contractile force,induced relaxation in SC cells,induced relaxation in TM cells,
"CC1CCCCN1S(=O)(=O)c1ccc(NC(=O)c2ccc(Br)c(I)c2)cc1 (stereo not drawn) [Remodilin 73, 4-Bromo-3-iodo-N-(4-((2-methylpiperidin-1-yl)sulfonyl)phenyl)benzamide]",,,inhibited fibronectin expression,inhibited the elevation of cellular contractile force,induced relaxation in SC cells,,
"CCC1CCCCN1S(=O)(=O)c1ccc(NC(=O)c2ccc(OC)c(I)c2)cc1 (stereo not drawn) [Remodilin 82, N-(4-((2-ethylpiperidin-1-yl)sulfonyl)phenyl)-3-iodo-4-methoxybenzamide]",,,inhibited fibronectin expression,inhibited the elevation of cellular contractile force,induced relaxation in SC cells,induced relaxation in TM cells,
